Source: patent US20120283325A1, “EXCIPIENT COMPATIBILITY WITH EZATIOSTAT” (Telik, Inc., priority 2011, published 2012)

Assays:
[1] = Potency results of ezatiostat hydrochloride in binary mixtures, formulations and alone stored at 40° C. and 75% RH; type: physicochemical; settings: for Potency: 40° C. and 75% RH
Protocol: (§1) Further, ezatiostat hydrochloride was mixed with each of the excipients mentioned in Table 3. The quantity of excipient used was determined by the desired properties of the resulting formulation. These blends were prepared in scintillation vials which were screw Teflon capped and stored at 40° C. and 75% RH.
The potency results of ezatiostat hydrochloride in the binary mixtures of Table 3, Formulations 1 and 2 of Table 2, and ezatiostat hydrochloride alone stored at 40° C. and 75% RH are shown in Table 4.

[2] = Degradation products by HPLC of binary mixtures and formulations of ezatiostat hydrochloride over time; type: physicochemical; settings: 40° C. and 75% RH
Protocol: as §1
The degradation products were evaluated for each sample using HPLC at initial, 4 weeks, and 8 weeks period. For the initial and 4 week samples, the HPLC autosampler temperature was set at ambient but it was set at 5° C. for samples tested at 8 weeks. The autosampler temperature was lowered due to an observation that individual impurities were increasing during the HPLC run.
The inconsistent results obtained at four weeks were attributed to higher temperature used during HPLC. For this reason, the data at four weeks is not probative for the underlying study.

[3] = 4 weeks, autosampler ambient (data called not probative)

Work on `CCOC(=O)[C@@H](N)CCC(=O)N[C@@H](CSCc1ccccc1)C(=O)N[C@@H](C(=O)OCC)c1ccccc1.Cl` [Ezatiostat•HCl, ethyl (2S)-2-amino-5-[[(2R)-3-benzylsulfanyl-1-[[(JR)-2-ethoxy-2-oxo-1-phenylethyl]amino]-1-oxopropan-2-yl]amino]-5-oxopentanoate] yielded a Potency ([1]; T = 0 weeks) of 102.1%, a Potency ([1]; T = 4 weeks) of 102.0% and a Potency ([1]; T = 8 weeks) of 100.4%. For the same compound, the Excipient compatibility ([1]; eight weeks at 40° C. and 75% RH) was “compatible with all the excipients investigated above”, the “Potency change over eight weeks” value ([1]; storage at 40° C. and 75% RH) was “little change” and the “RS(% Area) RRT 0.74” value ([2]; 0 weeks, autosampler ambient) was 0.13% Area. For the same compound, the “RS(% Area) RRT 0.88” value ([2]; 0 weeks, autosampler ambient) was 0.09% Area, the “RS(% Area) Total” value ([2]; 0 weeks, autosampler ambient) was 0.22% Area and the “RS(% Area) RRT 0.74” value [2, 3] was 0.28% Area. For the same compound, the “RS(% Area) RRT 0.88” value [2, 3] was 0.27% Area, the “RS(% Area) Total” value [2, 3] was 0.55% Area and the “RS(% Area) RRT 0.74” value ([2]; 8 weeks, autosampler 5° C.) was 0.07% Area. The “RS(% Area) RRT 0.88” value ([2]; 8 weeks, autosampler 5° C.) was 0.51% Area, the “RS(% Area) Total” value ([2]; 8 weeks, autosampler 5° C.) was 0.58% Area and the “RS(% Area) RRT 0.88” value ([2]; 8 weeks, autosampler 5° C., listed as ezatiostat hydrochloride) was 0.51 % Area.
